Test results taken from the NIST ThermoML archive (doi:10.1021/je800110r).
± gives the expanded uncertainty stated by the source.

Conditions: Liquid, Vibrating tube method

CCCCCCCCCC [decane]
mass density [kg/m3]
Conditions	283.15 K	293.14 K
635 kPa	–	730.3 ± 2
660 kPa	–	730.5 ± 2
720 kPa	–	730.4 ± 2
803 kPa	–	730.5 ± 2
31598 kPa	758 ± 2.1	–
31615 kPa	758 ± 2.1	–
31631 kPa	758 ± 2.1	–
31657 kPa	758.2 ± 2.1	–
31680 kPa	758 ± 2.1	–
31697 kPa	758.1 ± 2.1	–
31724 kPa	758.2 ± 2.1	–
31749 kPa	758.2 ± 2.1	–
31769 kPa	758.1 ± 2.1	–
31794 kPa	758.1 ± 2.1	–
31815 kPa	758.3 ± 2.1	–
31835 kPa	758.2 ± 2.1	–
31855 kPa	758.3 ± 2.1	–
31878 kPa	758.3 ± 2.1	–
32055 kPa	758.2 ± 2.1	–
32091 kPa	758.2 ± 2.1	–
32141 kPa	758.3 ± 2.1	–
32209 kPa	758.4 ± 2.1	–
32230 kPa	758.4 ± 2.1	–
32248 kPa	758.4 ± 2.1	–
32268 kPa	758.5 ± 2.1	–
32289 kPa	758.5 ± 2.1	–
32312 kPa	758.4 ± 2.1	–
32330 kPa	758.4 ± 2.1	–
32357 kPa	758.5 ± 2.1	–
32378 kPa	758.5 ± 2.1	–
32405 kPa	758.4 ± 2.1	–
32427 kPa	758.6 ± 2.1	–
32445 kPa	758.5 ± 2.1	–
32465 kPa	758.5 ± 2.1	–
32490 kPa	758.6 ± 2.1	–
32511 kPa	758.4 ± 2.1	–
32535 kPa	758.6 ± 2.1	–
32559 kPa	758.5 ± 2.1	–
32597 kPa	758.6 ± 2.1	–
32618 kPa	758.6 ± 2.1	–
32636 kPa	758.6 ± 2.1	–
32655 kPa	758.6 ± 2.1	–
32682 kPa	758.7 ± 2.1	–
32708 kPa	758.8 ± 2.1	–
32727 kPa	758.6 ± 2.1	–
32746 kPa	758.7 ± 2.1	–
32767 kPa	758.6 ± 2.1	–
32793 kPa	758.6 ± 2.1	–
32811 kPa	758.7 ± 2.1	–
32827 kPa	758.8 ± 2.1	–
32850 kPa	758.7 ± 2.1	–
32869 kPa	758.7 ± 2.1	–
32894 kPa	758.7 ± 2.1	–
32922 kPa	758.8 ± 2.1	–
32944 kPa	758.8 ± 2.1	–
32966 kPa	758.7 ± 2.1	–
32989 kPa	758.9 ± 2.1	–
33018 kPa	758.8 ± 2.1	–
33037 kPa	758.9 ± 2.1	–
33062 kPa	758.7 ± 2.1	–
33085 kPa	758.9 ± 2.1	–
33107 kPa	758.9 ± 2.1	–
33133 kPa	759 ± 2.1	–
33155 kPa	758.9 ± 2.1	–
33178 kPa	759 ± 2.1	–
33200 kPa	759.1 ± 2.1	–
33220 kPa	759 ± 2.1	–
33249 kPa	759 ± 2.1	–
33275 kPa	759 ± 2.1	–
33295 kPa	759 ± 2.1	–
33544 kPa	759.2 ± 2.1	–
33573 kPa	759.1 ± 2.1	–
33592 kPa	759.1 ± 2.1	–
33621 kPa	759.2 ± 2.1	–
33651 kPa	759.1 ± 2.1	–
33667 kPa	759.3 ± 2.1	–
33690 kPa	759.3 ± 2.1	–
33707 kPa	759.1 ± 2.1	–
33737 kPa	759.2 ± 2.1	–
33761 kPa	759.3 ± 2.1	–
33781 kPa	759.2 ± 2.1	–
33805 kPa	759.2 ± 2.1	–
33822 kPa	759.3 ± 2.1	–
33852 kPa	759.2 ± 2.1	–
33873 kPa	759.3 ± 2.1	–
33897 kPa	759.2 ± 2.1	–
33922 kPa	759.3 ± 2.1	–
33943 kPa	759.4 ± 2.1	–
33964 kPa	759.4 ± 2.1	–
33982 kPa	759.3 ± 2.1	–
34002 kPa	759.4 ± 2.1	–
34022 kPa	759.4 ± 2.1	–
34045 kPa	759.4 ± 2.1	–
34063 kPa	759.5 ± 2.1	–
34081 kPa	759.3 ± 2.1	–
34104 kPa	759.4 ± 2.1	–
34127 kPa	759.6 ± 2.1	–
34148 kPa	759.4 ± 2.1	–
34169 kPa	759.4 ± 2.1	–
34195 kPa	759.5 ± 2.1	–
34214 kPa	759.5 ± 2.1	–
34237 kPa	759.6 ± 2.1	–
34264 kPa	759.5 ± 2.1	–
34311 kPa	759.6 ± 2.1	–
34330 kPa	–	753.1 ± 2.1
34339 kPa	759.5 ± 2.1	–
34351 kPa	–	753.1 ± 2.1
34359 kPa	759.6 ± 2.1	–
34380 kPa	–	753.2 ± 2.1
34400 kPa	–	753.1 ± 2.1
34412 kPa	–	753.3 ± 2.1
34420 kPa	–	753.2 ± 2.1
34428 kPa	–	753.1 ± 2.1
34437 kPa	–	753.2 ± 2.1
34447 kPa	759.6 ± 2.1	–
34451 kPa	–	753.2 ± 2.1
34459 kPa	–	753.2 ± 2.1
34471 kPa	–	753.2 ± 2.1
34478 kPa	759.7 ± 2.1	–
34481 kPa	–	753.1 ± 2.1
34490 kPa	759.6 ± 2.1	–
34491 kPa	–	753.1 ± 2.1
34504 kPa	759.7 ± 2.1	753.2 ± 2.1
34514 kPa	759.7 ± 2.1	–
34517 kPa	–	753.2 ± 2.1
34527 kPa	–	753.2 ± 2.1
34530 kPa	759.6 ± 2.1	–
34537 kPa	–	753.3 ± 2.1
34543 kPa	–	753.2 ± 2.1
34544 kPa	759.7 ± 2.1	–
34545 kPa	–	753.3 ± 2.1
34551 kPa	759.7 ± 2.1	–
34558 kPa	759.6 ± 2.1	–
34561 kPa	759.7 ± 2.1	–
34564 kPa	759.8 ± 2.1	–
34567 kPa	759.6 ± 2.1	–
